One assay has as its target LSD1 (Homo sapiens (Human), UniProt O60341). The assay is described as follows: In vitro enzyme inhibition assay - LSD1 (HTRF). The format is biochemical.
In another assay the target is pan-HDAC. The assay is described as follows: In vitro enzyme inhibition assay - HDAC (HDAC-Glo I/II), pan-HDAC. The format is biochemical. In outline: (§1)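 Inhibition was measured with the HDAC-Glo I/II luminescent assay, testing compound as an 8-point, 5-fold dilution series from a 1 mM DMSO stock. Luminescence (RLU) was normalized to no-inhibitor and no-enzyme controls, and IC50 was derived by four-parameter variable-slope fitting.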

In another assay the target is HDAC1 (Homo sapiens (Human), UniProt Q13547). The assay is described as follows: In vitro enzyme inhibition assay - HDAC (HDAC-Glo I/II), HDAC1. The format is biochemical. To be noted: read-out: HDAC IC50 (nM) HDAC 1. The gist of the method: as §1
HDAC1, sequence (Q13547 whole entry): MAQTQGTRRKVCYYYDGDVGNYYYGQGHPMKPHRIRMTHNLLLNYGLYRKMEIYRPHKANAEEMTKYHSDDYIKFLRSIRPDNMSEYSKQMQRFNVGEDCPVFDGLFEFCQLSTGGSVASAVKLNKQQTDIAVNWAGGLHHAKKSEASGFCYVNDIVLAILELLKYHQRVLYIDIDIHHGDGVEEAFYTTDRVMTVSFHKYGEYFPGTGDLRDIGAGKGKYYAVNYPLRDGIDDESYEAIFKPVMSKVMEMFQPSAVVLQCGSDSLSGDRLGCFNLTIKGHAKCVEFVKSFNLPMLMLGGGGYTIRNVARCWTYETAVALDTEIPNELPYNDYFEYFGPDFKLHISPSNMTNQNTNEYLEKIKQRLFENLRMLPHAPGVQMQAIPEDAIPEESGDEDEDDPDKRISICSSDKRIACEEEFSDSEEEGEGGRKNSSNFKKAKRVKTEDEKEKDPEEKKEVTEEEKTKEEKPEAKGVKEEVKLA
The target of another assay is HDAC8 (Homo sapiens (Human), UniProt Q9BY41). The assay is described as follows: In vitro enzyme inhibition assay - HDAC (HDAC-Glo I/II), HDAC8. To be noted: read-out: HDAC IC50 (nM) HDAC 8. The format is biochemical. In outline: as §1
HDAC8, sequence (Q9BY41 whole entry): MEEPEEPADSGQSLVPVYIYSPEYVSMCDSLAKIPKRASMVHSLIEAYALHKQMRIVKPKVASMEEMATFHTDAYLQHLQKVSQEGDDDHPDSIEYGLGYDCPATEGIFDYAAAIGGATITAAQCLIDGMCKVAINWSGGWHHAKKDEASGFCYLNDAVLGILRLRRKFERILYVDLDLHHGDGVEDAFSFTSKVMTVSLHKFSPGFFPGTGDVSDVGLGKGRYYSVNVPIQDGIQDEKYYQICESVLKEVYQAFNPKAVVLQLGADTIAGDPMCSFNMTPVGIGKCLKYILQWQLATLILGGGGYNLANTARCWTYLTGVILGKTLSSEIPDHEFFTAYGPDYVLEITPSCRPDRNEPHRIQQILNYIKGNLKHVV
A further assay deals with NCI-H1417 cells. The assay is described as follows: In vitro cell inhibition assay - H1417 cell proliferation (CellTiter-Glo). Conditions: Homo sapiens, NCI-H1417, H1417 small cell lung cancer cell proliferation. The format is cell-based. In outline:
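Cells exposed to 8 compound concentrations (5-fold dilutions) in BEGM with 10% FBS for 7 days at 37° C., 5% CO2. Viable cells measured by CellTiter-Glo luminescence; inhibition versus no-inhibitor and no-cell controls, IC50 fitted.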
On the technique in general: In ATP-based viability assays light output follows the ATP content of the culture.

The next assay has as its system NCI-H69 cells. The experiment in a line: In vitro cell inhibition assay - NCI-H69 cell proliferation (CellTiter-Glo). The format is cell-based. Conditions: Homo sapiens, NCI-H69, H69 small cell lung cancer cell proliferation. The gist of the method:
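Cells seeded at 1×10^3 per well and incubated overnight at 37° C., 5% CO2, then treated with 8-point 5-fold compound dilutions in RPMI-640 with 20% FBS for 7 days. Viable cells measured by CellTiter-Glo luminescence; IC50 fitted from inhibition relative to no-inhibitor and no-cell controls.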

The subject of the next assay is NCI-H526 cells. The experiment in a line: In vitro cell inhibition assay - NCI-H526 cell proliferation (CellTiter-Glo). To be noted: Homo sapiens, NCI-H526, 120 h, H526 small cell lung cancer cell proliferation, 5 days. It counts as cell-based. The gist of the method: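 NCI-H526 cells plated at 1×10^3 per well overnight, then treated with 8 concentrations (5-fold dilutions) in RPMI-640 with 10% FBS for 5 days at 37° C., 5% CO2. Viable cells quantified by CellTiter-Glo luminescence; IC50 fitted from inhibition rates relative to no-inhibitor and no-cell controls.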

The values that follow come from patent publication US20250304549A1, “HYDROXYAMIDE DERIVATIVE AND USE THEREOF” (SICHUAN HUIYU PHARMACEUTICAL CO., LTD., priority 2022, published 2025).

As usually defined, the IC50 is the concentration needed to halve the response being measured.

Where a name gives a salt, the structure may show the parent alone.

Turning to `CC(C)(O)COc1ccc(-c2cnc(N3CCC(NCc4ccc(CCC(=O)NO)cc4)CC3)c(C#N)c2-c2ccc(C#N)c(F)c2)cc1O` [Example 188, 3-(4-(((1-(3-Cyano-4-(4-cyano-3-fluorophenyl)-5-(3-hydroxy-4-(2-hydroxy-2-methylpropoxy)phenyl)pyridin-2-yl)piperidin-4-yl)amino)methyl)phenyl)-N-hydroxypropanamide formate], the IC50 against LSD1 was determined as 0.3 nM; against pan-HDAC, 5.07 nM; at HDAC1, 3.06 nM; on HDAC8, 198 nM; in the assay with NCI-H1417 cells it was 1.74 nM; in the assay with NCI-H69 cells, 29.7 nM. In the assay on NCI-H526 cells, this compound displayed an IC50 of 80.4 nM.

For the compound `CC(C)(O)COc1ccc(-c2cnc(N3CCC(NCc4ccc(/C=C/C(=O)NO)c(C#N)c4)CC3)c(C#N)c2-c2ccc(C#N)c(F)c2)cc1O` [Example 189, (E)-3-(2-Cyano-4-((1-(3-cyano-4-(4-cyano-3-fluorophenyl)-5-(3-hydroxy-4-(2-hydroxy-2-methylpropoxy)phenyl)pyridin-2-yl)piperidin-4-yl)amino)methyl) phenyl)-N-hydroxyacrylamide formate], the IC50 against LSD1 was found to be 4.11 nM; against pan-HDAC, 7.8 nM; at HDAC1, 13.4 nM; on HDAC8 it was 130 nM; in the assay with NCI-H1417 cells, 6.31 nM; with NCI-H69 cells, 39.2 nM. In the assay with NCI-H526 cells, this compound returned an IC50 of 27.8 nM.

Turning to `COc1ccc(-c2cnc(N3CCC(NCc4ccc(CCC(=O)NO)nc4)CC3)c(C#N)c2-c2ccc(C#N)c(F)c2)cc1O` [Example 191, 3-(5-(((1-(3-Cyano-4-(4-cyano-3-fluorophenyl)-5-(3-hydroxy-4-methoxyphenyl)pyridin-2-yl)piperidin-4-yl)amino)methyl)pyridin-2-yl)-N-hydroxypropanamide formate], the IC50 against LSD1 amounted to 2.24 nM; against pan-HDAC, 2.17 nM; at HDAC1, 0.54 nM; on HDAC8 it was 37.5 nM; in the assay on NCI-H1417 cells, 3.38 nM; with NCI-H69 cells it was 24.6 nM. The same compound registered a half-maximal inhibitory concentration (IC50) in the assay with NCI-H526 cells of 25.9 nM.

For `CC(C)(O)COc1ccc(-c2cnc(N3CCC(NCc4ccc(OCC(=O)NO)cc4)CC3)c(C#N)c2-c2ccc(C#N)c(F)c2)cc1O` [Example 192, 2-(4-(((1-(3-cyano-4-(4-cyano-3-fluorophenyl)-5-(3-hydroxy-4-(2-hydroxy-2-methylpropoxy)phenyl)pyridin-2-yl)piperidin-4-yl)amino)methyl)phenoxy)-N-hydroxyacetamide formate], the IC50 at LSD1 came to 0.45 nM; at pan-HDAC it was 2.75 nM; at HDAC1, 1.49 nM; on HDAC8 it was 64.9 nM; in the assay with NCI-H1417 cells, 1.98 nM; in the assay with NCI-H69 cells it was 28 nM. In the assay on NCI-H526 cells, the IC50 was found to be 82.1 nM.

With `CC(C)(O)COc1ccc(-c2cnc(N3CCC(NCc4ccc(/C=C(\F)C(=O)NO)cc4)CC3)c(C#N)c2-c2ccc(C#N)c(F)c2)cc1O` [Example 198, (Z)-3-(4-(((1-(3-Cyano-4-(4-cyano-3-fluorophenyl)-5-(3-hydroxy-4-(2-hydroxy-2-methylpropoxy)phenyl)pyridin-2-yl)piperidin-4-yl)amino)methyl)phenyl)-2-fluoro-N-hydroxyacrylamide formate], the IC50 against LSD1 was found to be 0.4 nM; on pan-HDAC, 6.35 nM; on HDAC1, 4.85 nM; on HDAC8 it was 67.2 nM; in the assay on NCI-H1417 cells, 0.63 nM; in the assay on NCI-H69 cells, 23.7 nM. Further, the IC50 with NCI-H526 cells worked out at 21.2 nM.

Turning to `CC(C)(O)COc1ccc(-c2cnc(N3CCC(NCc4ccc(/C=C/C(=O)NO)nc4)CC3)c(C#N)c2-c2ccc(C#N)c(F)c2)cc1O` [Example 199, (E)-3-(5-((1-(3-Cyano-4-(4-cyano-3-fluorophenyl)-5-(3-hydroxy-4-(2-hydroxy-2-methylpropoxy)phenyl)pyridin-2-yl)piperidin-4-yl)amino)methyl) pyridin-2-yl)-N-hydroxyacrylamide formate], the IC50 was 0.54 nM on LSD1; 2.77 nM against pan-HDAC; 1.92 nM on HDAC1; 33.9 nM on HDAC8; 2.78 nM with NCI-H1417 cells; 9.24 nM with NCI-H69 cells. In addition, it took 4.05 nM to reach half-maximal inhibition in the assay on NCI-H526 cells (IC50).

For `COc1ccc(-c2cnc(N3CCC(NCc4ccc(/C=C/C(=O)NO)c(F)c4)CC3)c(C#N)c2-c2ccc(C#N)c(F)c2)cc1O` [Example 200, (E)-3-(4-(((1-(3-Cyano-4-(4-cyano-3-fluorophenyl)-5-(3-hydroxy-4-methoxyphenyl)pyridin-2-yl)piperidin-4-yl)amino)methyl)-2-fluorophenyl)-N-hydroxyacrylamide formate], the IC50 on LSD1 is 0.45 nM; at pan-HDAC it was 4.18 nM; on HDAC1, 2.95 nM; at HDAC8 it was 127 nM; with NCI-H1417 cells, 2.27 nM; in the assay on NCI-H69 cells, 5.16 nM. This compound also gave an IC50 in the assay with NCI-H526 cells of 4.1 nM.

For the compound `COc1ccc(-c2cnc(N3CCC(NCc4ccc(CCC(=O)NO)c(F)c4)CC3)c(C#N)c2-c2ccc(C#N)c(F)c2)cc1O` [Example 201, 3-(4-((1-(3-Cyano-4-(4-cyano-3-fluorophenyl)-5-(3-hydroxy-4-methoxyphenyl)pyridin-2-yl)piperidin-4-yl)amino)methyl)-2-fluorophenyl)-N-hydroxypropanamide formate], the IC50 against LSD1 was 0.22 nM; at pan-HDAC, 7.71 nM; at HDAC1, 4.81 nM; on HDAC8, 438 nM; in the assay with NCI-H1417 cells, 3.33 nM; in the assay with NCI-H69 cells, 56.4 nM. Further, in the assay with NCI-H526 cells, the IC50 came to 20.5 nM.

Turning to `COc1ccc(-c2cnc(N3CCC(NCc4cnc(/C=C/C(=O)NO)nc4)CC3)c(C)c2-c2ccc(C#N)c(F)c2)cc1O` [Example 202, (E)-3-(5-(((1-(4-(4-Cyano-3-fluorophenyl)-5-(3-hydroxy-4-methoxyphenyl)-3-methylpyridin-2-yl)piperidin-4-yl)amino)methyl)pyrimidin-2-yl)-N-hydroxyacrylamide formate], the IC50 against LSD1 came to 74.2 nM; against pan-HDAC, 1.85 nM; on HDAC1, 0.88 nM; at HDAC8, 9.03 nM; with NCI-H1417 cells it was 6.15 nM; with NCI-H69 cells, 13.6 nM. 4.35 nM corresponded to half-maximal inhibition in the assay with NCI-H526 cells (IC50).

As to `N#Cc1ccc(-c2c(-c3ccc(N4CCOCC4)c(O)c3)cnc(N3CCC(NCc4ccc(/C=C/C(=O)NO)cc4)CC3)c2C#N)cc1F` [Example 203, (E)-3-(4-(((1-(3-Cyano-4-(4-cyano-3-fluorophenyl)-5-(3-hydroxy-4-morpholinophenyl)pyridin-2-yl)piperidin-4-yl)amino)methyl)phenyl-N-hydroxyacrylamide formate], the IC50 against LSD1 turned out to be 1.03 nM; against pan-HDAC it was 1.39 nM; on HDAC1 it was 1.58 nM; on HDAC8 it was 25.3 nM; in the assay with NCI-H1417 cells, 1.99 nM; in the assay on NCI-H69 cells, 9.38 nM. This compound showed an IC50 in the assay on NCI-H526 cells of 12.3 nM.

For `CC(C)(O)COc1ccc(-c2cnc(N3CCC(NCc4ccc(/C=C/C(=O)NO)cn4)CC3)c(C#N)c2-c2ccc(C#N)c(F)c2)cc1O` [Example 205, (E)-3-(6-(((1-(3-Cyano-4-(4-cyano-3-fluorophenyl)-5-(3-hydroxy-4-(2-hydroxy-2-methylpropoxy)phenyl)pyridin-2-yl)piperidin-4-yl)amino)methyl)pyridin-3-yl)-N-hydroxyacrylamide formate], the half-maximal inhibitory concentration (IC50) against LSD1 is 1.91 nM; against pan-HDAC, 4.37 nM; at HDAC1 it was 3.08 nM; on HDAC8 it was 100 nM; with NCI-H1417 cells it was 6.86 nM; in the assay on NCI-H69 cells, 25.2 nM. Besides, the IC50 in the assay on NCI-H526 cells worked out at 39.2 nM.

Regarding `COc1ccc(-c2cnc(N3CCC(C)(NCc4cnc(/C=C/C(=O)NO)nc4)CC3)c(C#N)c2-c2ccc(C#N)c(F)c2)cc1O` [Example 206, (E)-3-(5-(((1-(3-Cyano-4-(4-cyano-3-fluorophenyl)-5-(3-hydroxy-4-methoxyphenyl)pyridin-2-yl)-4-methylpiperidin-4-yl)amino)methyl)pyrimidin-2-yl)-N-hydroxyacrylamide formate], the IC50 against LSD1 was found to be 2.03 nM; at pan-HDAC, 11.5 nM; on HDAC1, 32.9 nM; at HDAC8, 32.5 nM; in the assay with NCI-H1417 cells, 6.21 nM; in the assay with NCI-H69 cells, 94.7 nM. In the assay with NCI-H526 cells, this compound displayed an IC50 of 106 nM.

For the compound `Cc1c(N2CCC(NCc3ccc(/C=C/C(=O)NO)cc3)CC2)ncc(-c2ccc(OCC(C)(C)O)c(O)c2)c1-c1ccc(C#N)c(F)c1` [Example 207, (E)-3-(4-(((1-(4-(4-Cyano-3-fluorophenyl)-5-(3-hydroxy-4-(2-hydroxy-2-methylpropoxy)phenyl)-3-methylpyridin-2-yl)piperidin-4-yl)amino)methyl)phenyl)-N-hydroxyacrylamide hydrochloride], the IC50 stood at 6.65 nM against LSD1; 12.4 nM against pan-HDAC; 2.51 nM at HDAC1; 170 nM at HDAC8; 9.5 nM in the assay on NCI-H1417 cells; 33.6 nM with NCI-H69 cells. In addition, the IC50 in the assay on NCI-H526 cells worked out at 26.6 nM.
